Laboratory results from patent US20030232986A1, “Inhibitors of caspases” (Vertex Pharmaceuticals Incorporated, priority 1998, published 2003).

What was measured:
[1] = In vivo rat clearance assay (i.v.); settings: plasma, iv, i.v. via jugular vein
Description: Cannulations of the jugular and carotid vessels of rats under anesthesia are performed one day prior to the pharmacokinetic study. M. J. Free, R. A. Jaffee; ‘Cannulation techniques for the collection blood and other bodily fluids’; in: Animal Models; p. 480-495; N. J. Alexander, Ed.; Academic Press; (1978). Drug (10 mg/mL) is administered via the jugular vein in a vehicle usually consisting of: propylene glycol/saline, containing 100 mM sodium bicarbonate in a 1:1 ratio. Animals are dosed with 10-20 mg drug/kg and blood samples are drawn at 0, 2, 5, 7, 10, 15, 20, 30, 60, and 90 minutes from an indwelling carotid catheter. The blood is centrifuged to plasma and stored at −20° C. until analysis. Pharmacokinetic analysis of data is performed by non-linear regression using standard software such as RStrip (MicroMath Software, UT) and/or Pcnonlin (SCI Software, NC) to obtain clearance values.
Rat plasma is extracted with an equal volume of acetonitrile (containing 0.1% TFA). Samples are then centrifuged at approximately 1,000×g and the supernatant analyzed by gradient HPLC. A typical assay procedure is described below.
200 μL of plasma is precipitated with 200 μL of 0.1% trifluoroacetic acid (TFA) in acetonitrile and 10 μL of a 50% aqueous zinc chloride solution, vortexed then centrifuged at ^˜1000×g and the supernatant collected and analyzed by HPLC.
A standard curve is run at 20, 10, 5, 2 and 1 μg/mL concentrations.

Caspase-4 = molecular target: T1, Caspase-4 (Homo sapiens, UniProt P49662); test: Caspase-4 enzyme inhibition (Ki); assay type: biochemical; settings: substrate Ac-WEHD-AMC 20 μM, 37° C.
T1 sequence (P49662 81-270 limits assumed): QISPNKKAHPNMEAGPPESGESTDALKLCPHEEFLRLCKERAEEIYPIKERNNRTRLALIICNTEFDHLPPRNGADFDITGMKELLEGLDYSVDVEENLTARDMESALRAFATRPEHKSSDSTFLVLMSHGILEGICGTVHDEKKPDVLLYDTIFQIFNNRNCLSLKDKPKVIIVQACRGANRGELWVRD
T1 sequence (P49662 290-377 limits assumed): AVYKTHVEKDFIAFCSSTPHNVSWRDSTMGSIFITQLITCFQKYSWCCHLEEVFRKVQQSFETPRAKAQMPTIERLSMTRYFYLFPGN
Description: Ki values for test compounds with the various caspases were obtained by the method of Margolin et al. (J. Biol. Chem., 272 pp. 7223-7228 (1997)). Assays were performed in 10 mM Tris (Sigma Corp, St Louis Mo.) pH 7.5, 1 mM Dithiothreitol (DTT, Research Organic INC, Cleveland, Ohio) and 0.1% CHAPS (Pierce, Rockford Ill.) at 37° C. For caspase-3, a solution of 8% glycerol was added to the assay buffer to improve enzyme stability. A 65 μL aliquot of the assay buffer and 5 μL aliquot of the appropriate dilutions of inhibitor in DMSO where pipetted into a 96 well plate, treated with 10 μL of caspase, then diluted in assay buffer (0.5-40 nM active protein by active site titration). A control containing DMSO but no compound was included for each determination. The plates were then incubated for 15 minutes at 37° C., before addition of the appropriate substrate (20 μL, final concentration 1-4×KM, final assay volume 100 μL) to initiate the reaction. Reaction rates were measured at 37° C. either by following the time dependant increase in absorbance at 405 nm (for the pNA substrates) or in fluorescence (Ex 390, Em 460) (for the AMC substrates). The rates obtained were plotted against inhibitor concentration and the data fit to the Morrison tight-binding equation for competitive inhibitors (Morrison, J. F., Biochem. Biophys. Acta, 185 pp. 269-286 (1969)). […]

| Compound | clearance [1] [mL/min/kg] | Ki (Caspase-4) [nM] |
| --- | --- | --- |
| CC(=O)Nc1ccc(C(=O)N[C@@H](C)C(=O)N2CCC[C@H]2C(=O)N[C@H](C=O)CC(=O)O)cc1Cl [Example 122f, 3-({1-[2-(4-Acetylamino-3-chloro-benzoylamino)-propionyl]-pyrrolidine-2-carbonyl}-amino)-4-oxo-butyric acid] | < 50 | – |
| Cc1cc(C(=O)N[C@H](C(=O)N2CCCC2C(=O)N[C@H](C=O)CC(=O)O)C(C)C)cc(C)c1O (stereo partly drawn) [Example 65, 3-({l-[2-(4-Hydroxy-3,5-dimethyl-benzoyiamino)-3-methyl-butyryl]-pyrrolidine-2-carbonyl}-amino)-4-oxo-butyric acid] | > 80 | – |
| COc1ccc(C(=O)N[C@@H](C)C(=O)N2CCC[C@H]2C(=O)N[C@H](C=O)CC(=O)O)cc1 [Example 7f] | 50 to 80 | – |
| C[C@H](NC(=O)c1ccc(N)c(Cl)c1)C(=O)N1CCC[C@H]1C(=O)N[C@H](C=O)CC(=O)O [Example 122b, 3-({-[2-(4-Amino-3-chloro-benzoylamino)-propionyl]-pyrrolidine-2-carbonyl}-amino)-4-oxo-butyric acid] | 50 to 80 | < 10 |
| COc1c(Cl)cc(C(=O)N[C@@H](C)C(=O)N2CCC[C@H]2C(=O)N[C@H](C=O)CC(=O)O)cc1Cl [Example 122c, 3-({1-[2-(3,5-Dichloro-4-methoxy-benzoylamino)-propionyl]-pyrrolidine-2-carbonyl}-amino)-4-oxo-butyric acid] | > 80 | – |
| CC[C@H](NC(=O)c1cc(Cl)c(O)c(Cl)c1)C(=O)N1CCC[C@H]1C(=O)N[C@H](C=O)CC(=O)O [Example 20m] | < 50 | – |
| COc1c(C)cc(C(=O)N[C@@H](C)C(=O)N2CCC[C@H]2C(=O)N[C@H](C=O)CC(=O)O)cc1C [Example 122d, 3-({1-[2-(4-Methoxy-3,5-dimethyl-benzoylamino)-propionyl]-pyrrolidine-2-carbonyl}-amino)-4-oxo-butyric acid] | 50 to 80 | < 10 |
| CS(=O)(=O)CC[C@H](NC(=O)c1nccc2ccccc12)C(=O)N1CCC[C@H]1C(=O)N[C@H](C=O)CC(=O)O [Example 20h] | 50 to 80 | – |
| C[C@H](NC(=O)c1nccc2ccccc12)C(=O)N1CCC[C@H]1C(=O)N[C@H](C=O)CC(=O)O [Example 7d] | < 50 | – |
